Assay results taken from PubChem BioAssay AID248 (DTP/NCI, 2004).
Several values for one entry are separate records, joined by “and”; a condition that tells them apart may be missing. Identical values can stand only once. Toxic doses and inconclusive results are not listed.

Tested on: L1210 leukemia ip in BDF1 mice, survival T/C
Assay: NCI In Vivo Anticancer Drug Screen. Data for tumor model L1210 Leukemia (intraperitoneal) in B6D2F1 (BDF1) mice
Conditions: endpoint: mean survival time, higher = longer survival
How it was run: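 Value reflects the ratio of survival in compound-treated mice to survival in vehicle-treated controls, with both groups carrying the same transplanted tumor.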

[1] = dose: 100.0 mg/kg/injection, schedule: Q04DX002 (ip), vehicle: saline with Tween-80
[2] = dose: 200.0 mg/kg/injection, schedule: Q04DX002 (ip), vehicle: saline with Tween-80
[3] = dose: 75.0 mg/kg/injection, schedule: Q01DX001 (ip), vehicle: saline
[4] = dose: 150.0 mg/kg/injection, schedule: Q01DX001 (ip), vehicle: saline

O/N=c1/ccn(O)c2ccccc12
T/C (dose: 0.5 mg/kg/injection, schedule: Q03HX008 (ip), vehicle: other): 114 % of control | T/C (dose: 0.51 mg/kg/injection, schedule: Q01DX009 (ip), vehicle: saline): 111 % of control and 119 % of control | T/C (dose: 0.78 mg/kg/injection, schedule: Q01DX009 (ip), vehicle: saline): 116 % of control | T/C (dose: 1.0 mg/kg/injection, schedule: Q01DX009 (sc), vehicle: other): 114 % of control | T/C (dose: 1.17 mg/kg/injection, schedule: Q01DX009 (ip), vehicle: saline): 110 % of control | T/C (dose: 1.7 mg/kg/injection, schedule: Q01DX015 (ip), vehicle: saline): 108 % of control | T/C (dose: 2.0 mg/kg/injection, schedule: Q01DX009 (sc), vehicle: other): 113 % of control | T/C (dose: 2.0 mg/kg/injection, schedule: Q01DX015 (ip), vehicle: saline): 122 % of control | T/C (dose: 2.0 mg/kg/injection, schedule: Q03HX008 (ip), vehicle: other): 151 % of control | T/C (dose: 4.0 mg/kg/injection, schedule: Q01DX001 (sc), vehicle: other): 118 % of control | T/C (dose: 4.0 mg/kg/injection, schedule: Q01DX009 (ip), vehicle: other): 88 % of control | T/C (dose: 4.0 mg/kg/injection, schedule: Q01DX009 (oral), vehicle: other): 98 % of control | T/C (dose: 4.0 mg/kg/injection, schedule: Q01DX009 (sc), vehicle: other): 104 % of control | T/C (dose: 4.0 mg/kg/injection, schedule: Q03HX016 (ip), vehicle: other): 87 % of control | T/C (dose: 4.4 mg/kg/injection, schedule: Q01DX001 (ip), vehicle: other): 113 % of control | T/C (dose: 6.0 mg/kg/injection, schedule: Q01DX015 (ip), vehicle: saline): 123 % of control | T/C (dose: 6.6 mg/kg/injection, schedule: Q01DX001 (ip), vehicle: other): 113 % of control | T/C (dose: 8.0 mg/kg/injection, schedule: Q01DX001 (ip), vehicle: other): 108 % of control | T/C (dose: 8.0 mg/kg/injection, schedule: Q01DX001 (oral), vehicle: other): 102 % of control | T/C (dose: 8.0 mg/kg/injection, schedule: Q01DX001 (sc), vehicle: other): 108 % of control | T/C (dose: 8.0 mg/kg/injection, schedule: Q01DX005 (ip), vehicle: other): 93 % of control | T/C (dose: 8.0 mg/kg/injection, schedule: Q01DX009 (oral), vehicle: other): 108 % of control | T/C (dose: 8.0 mg/kg/injection, schedule: Q01DX009 (sc), vehicle: other): 120 % of control | T/C (dose: 8.0 mg/kg/injection, schedule: Q04DX003 (ip), vehicle: other): 110 % of control | T/C (dose: 8.0 mg/kg/injection, schedule: Q08DX002 (ip), vehicle: other): 114 % of control | T/C (dose: 9.0 mg/kg/injection, schedule: Q01DX015 (ip), vehicle: saline): 87 % of control | T/C (dose: 16.0 mg/kg/injection, schedule: Q01DX001 (oral), vehicle: other): 103 % of control | T/C (dose: 16.0 mg/kg/injection, schedule: Q01DX001 (sc), vehicle: other): 96 % of control | T/C (dose: 16.0 mg/kg/injection, schedule: Q01DX009 (oral), vehicle: other): 103 % of control | T/C (dose: 25.0 mg/kg/injection, schedule: Q04DX003 (ip), vehicle: saline): 88 % of control | T/C (dose: 32.0 mg/kg/injection, schedule: Q01DX001 (oral), vehicle: other): 113 % of control | T/C (dose: 32.0 mg/kg/injection, schedule: Q01DX001 (sc), vehicle: other): 118 % of control | T/C (dose: 32.0 mg/kg/injection, schedule: Q01DX009 (oral), vehicle: other): 103 % of control | T/C (dose: 40.0 mg/kg/injection, schedule: Q01DX001 (ip), vehicle: other): 109 % of control | T/C (dose: 64.0 mg/kg/injection, schedule: Q01DX001 (oral), vehicle: other): 104 % of control | T/C (dose: 80.0 mg/kg/injection, schedule: Q01DX001 (ip), vehicle: other): 89 % of control | T/C (dose: 128.0 mg/kg/injection, schedule: Q01DX001 (oral), vehicle: other): 103 % of control

CN(C)C(=O)c1cccc(NC(=O)Oc2ccccc2)c1
T/C (dose: 100.0 mg/kg/injection, schedule: Q01DX009 (ip), vehicle: saline with Tween-80): 109 % of control | T/C (dose: 100.0 mg/kg/injection, schedule: Q04DX003 (ip), vehicle: saline with Tween-80): 102 % of control | T/C (dose: 200.0 mg/kg/injection, schedule: Q01DX009 (ip), vehicle: saline with Tween-80): 101 % of control | T/C (dose: 200.0 mg/kg/injection, schedule: Q04DX003 (ip), vehicle: saline with Tween-80): 100 % of control | T/C (dose: 400.0 mg/kg/injection, schedule: Q01DX009 (ip), vehicle: saline with Tween-80): 101 % of control | T/C (dose: 400.0 mg/kg/injection, schedule: Q04DX003 (ip), vehicle: saline with Tween-80): 102 % of control

Oc1ccc2ccccc2c1C(c1ccccc1)c1c(O)ccc2ccccc12
T/C (dose: 87.5 mg/kg/injection, schedule: Q04DX003 (ip), vehicle: carboxymethylcellulose (CMC)): 106 % of control | T/C (dose: 175.0 mg/kg/injection, schedule: Q04DX003 (ip), vehicle: carboxymethylcellulose (CMC)): 95 % of control | T/C (dose: 350.0 mg/kg/injection, schedule: Q04DX003 (ip), vehicle: carboxymethylcellulose (CMC)): 111 % of control

CC(=O)NNCc1ccccc1
T/C (dose: 100.0 mg/kg/injection, schedule: Q01DX001 (ip), vehicle: Klucel (hydroxypropylcellulose) (HPC)): 103 % of control | T/C (dose: 200.0 mg/kg/injection, schedule: Q01DX001 (ip), vehicle: Klucel (hydroxypropylcellulose) (HPC)): 103 % of control | T/C (dose: 400.0 mg/kg/injection, schedule: Q01DX001 (ip), vehicle: Klucel (hydroxypropylcellulose) (HPC)): 97 % of control

CC(N)CN(C)C (stereo unspecified)
T/C (dose: 100.0 mg/kg/injection, schedule: Q01DX009 (ip), vehicle: saline): 98 % of control | T/C (dose: 100.0 mg/kg/injection, schedule: Q04DX003 (ip), vehicle: saline): 99 % of control | T/C (dose: 200.0 mg/kg/injection, schedule: Q01DX009 (ip), vehicle: saline): 106 % of control | T/C (dose: 200.0 mg/kg/injection, schedule: Q04DX003 (ip), vehicle: saline): 100 % of control | T/C (dose: 400.0 mg/kg/injection, schedule: Q04DX003 (ip), vehicle: saline): 96 % of control

CCC1(C)n2c(=O)c3ccccc3c(=O)n21
T/C [1]: 97 % of control | T/C [2]: 101 % of control | T/C (dose: 400.0 mg/kg/injection, schedule: Q04DX002 (ip), vehicle: saline with Tween-80): 90 % of control

CCN=C(c1ccc(NC(=O)c2ccc(C(=O)Nc3ccc(C(=NCC)N(CC)C(=O)NC(C)C)cc3)cc2)cc1)N(CC)C(=O)NC(C)C
T/C (dose: 6.0 mg/kg/injection, schedule: Q01DX015 (ip), vehicle: methylcellulose (MC)): 89 % of control | T/C (dose: 25.0 mg/kg/injection, schedule: Q01DX015 (ip), vehicle: methylcellulose (MC)): 102 % of control | T/C (dose: 37.0 mg/kg/injection, schedule: Q01DX015 (ip), vehicle: methylcellulose (MC)): 96 % of control

O=S(=O)(CCCl)Cc1ccccc1
T/C [1]: 115 % of control | T/C [2]: 94 % of control

COC(=O)c1c(C)cc(C)c(C(C)=O)c1O
T/C (dose: 50.0 mg/kg/injection, schedule: Q01DX001 (ip), vehicle: carboxymethylcellulose (CMC)): 96 % of control | T/C (dose: 100.0 mg/kg/injection, schedule: Q01DX001 (ip), vehicle: carboxymethylcellulose (CMC)): 102 % of control | T/C (dose: 200.0 mg/kg/injection, schedule: Q01DX001 (ip), vehicle: carboxymethylcellulose (CMC)): 104 % of control | T/C (dose: 400.0 mg/kg/injection, schedule: Q01DX001 (ip), vehicle: carboxymethylcellulose (CMC)): 107 % of control

c1ccc(N2CCNCC2)cc1 (tested in a mixture with another compound)
T/C (dose: 5.0 mg/kg/injection, schedule: Q01DX001 (ip), vehicle: saline): 105 % of control and 101 % of control and 97 % of control | T/C (dose: 10.0 mg/kg/injection, schedule: Q01DX001 (ip), vehicle: saline): 105 % of control and 97 % of control | T/C (dose: 20.0 mg/kg/injection, schedule: Q01DX001 (ip), vehicle: saline): 105 % of control and 94 % of control and 95 % of control | T/C (dose: 40.0 mg/kg/injection, schedule: Q01DX001 (ip), vehicle: saline): 102 % of control and 100 % of control | T/C (dose: 80.0 mg/kg/injection, schedule: Q01DX001 (ip), vehicle: saline): 100 % of control | T/C (dose: 100.0 mg/kg/injection, schedule: Q01DX001 (ip), vehicle: saline): 98 % of control | T/C (dose: 200.0 mg/kg/injection, schedule: Q01DX001 (ip), vehicle: saline): 96 % of control

O=[N+]([O-])C1C2CCC(C2)C1[N+](=O)[O-] (stereo unspecified)
T/C [3]: 91 % of control | T/C [4]: 100 % of control | T/C (dose: 300.0 mg/kg/injection, schedule: Q01DX001 (ip), vehicle: saline): 87 % of control

COC(=O)c1ccc(S(=O)(=O)O)cc1[N+](=O)[O-]
T/C (dose: 100.0 mg/kg/injection, schedule: Q04DX002 (ip), vehicle: saline): 100 % of control | T/C (dose: 200.0 mg/kg/injection, schedule: Q04DX002 (ip), vehicle: saline): 88 % of control | T/C (dose: 400.0 mg/kg/injection, schedule: Q04DX002 (ip), vehicle: saline): 96 % of control

CC/C=C/C1(C(C)C)C(=O)NC(=O)NC1=O
T/C [3]: 103 % of control | T/C [4]: 105 % of control
